Results published in ChEMBL document CHEMBL5665443, “Enzyme Inhibitor Single Concentration assay results for EUbOPEN Chemogenomics Library” (2024).

Key:
[1] = molecular target: Uracil-DNA glycosylase (Homo sapiens) (UniProt P13051); conditions: Compound Concentration 10.0 uM, Hit No;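 further: UNG excision on a quenched double-stranded DNA oligo probe, with APE1 added for strand incision and turnover, read as fluorescence at 594 nm as strands separate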
Description: Inhibition of UNG by quantifying inhibition of UNG-mediated cleavage and dissociation of quenched duplex DNA oligonucleotides, measured as fluorescence at 594 nm. To generate a functional strand incision and increase turn-over this assay is coupled to APE1.

[2] = molecular target: Methyl-CpG-binding domain protein 4 (Homo sapiens) (UniProt O95243); conditions: Compound Concentration 10.0 uM;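 further: MBD4 activity read as fluorescence at 594 nm from cleavage and release of a quenched duplex DNA oligonucleotide, with APE1 coupled to incise the strand and raise turnover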
Description: Inhibition of MBD4 by quantifying inhibition of MBD4-mediated cleavage and dissociation of quenched duplex DNA oligonucleotides, measured as fluorescence at 594 nm. To generate a functional strand incision and increase turn-over this assay is coupled to APE1.

[3] = molecular target: T1, Endonuclease 8-like 2 (Homo sapiens) (UniProt Q969S2); conditions: Compound Concentration 10.0 uM, Hit No;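 further: fluorescence at 594 nm reports NEIL2 cutting and release of a quenched double-stranded DNA oligo substrate, reduced signal read as inhibition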
T1 sequence (whole entry): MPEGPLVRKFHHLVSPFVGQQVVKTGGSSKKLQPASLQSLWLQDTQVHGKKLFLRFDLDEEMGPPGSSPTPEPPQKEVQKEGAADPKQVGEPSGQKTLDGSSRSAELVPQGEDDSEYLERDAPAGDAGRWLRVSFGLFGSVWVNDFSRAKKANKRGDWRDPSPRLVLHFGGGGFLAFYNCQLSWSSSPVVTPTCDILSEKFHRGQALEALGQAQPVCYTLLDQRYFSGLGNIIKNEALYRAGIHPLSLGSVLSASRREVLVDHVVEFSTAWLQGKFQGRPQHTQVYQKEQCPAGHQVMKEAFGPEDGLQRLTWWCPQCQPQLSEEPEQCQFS
Description: Inhibition of NEIL2 by quantifying inhibition of NEIL2-mediated cleavage and dissociation of quenched duplex DNA oligonucleotides, measured as fluorescence at 594 nm.

[4] = molecular target: DNA-3-methyladenine glycosylase (Homo sapiens) (UniProt P29372); conditions: Compound Concentration 10.0 uM, Hit No;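 further: enzyme assay where MPG cuts a quenched duplex DNA oligonucleotide probe, paired with APE1 for strand incision and turnover, read as fluorescence at 594 nm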
Description: Inhibition of MPG by quantifying inhibition of MPG-mediated cleavage and dissociation of quenched duplex DNA oligonucleotides, measured as fluorescence at 594 nm. To generate a functional strand incision and increase turn-over this assay is coupled to APE1.

[5] = molecular target: Endonuclease 8-like 1 (Homo sapiens) (UniProt Q96FI4); conditions: Compound Concentration 10.0 uM, Hit No;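 further: fluorescence at 594 nm from quenched duplex DNA oligonucleotides released by NEIL1 cleavage and strand separation, reported as reduction of this enzyme activity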
Description: Inhibition of NEIL1 by quantifying inhibition of NEIL1-mediated cleavage and dissociation of quenched duplex DNA oligonucleotides, measured as fluorescence at 594 nm.

[6] = molecular target: G/T mismatch-specific thymine DNA glycosylase (Homo sapiens) (UniProt Q13569); conditions: Compound Concentration 10.0 uM, Hit No;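 further: human TDG cleavage of quenched duplex DNA oligonucleotides coupled to APE1, strand release read as fluorescence at 594 nm, inhibition of TDG activity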
Description: Inhibition of TDG by quantifying inhibition of TDG-mediated cleavage and dissociation of quenched duplex DNA oligonucleotides, measured as fluorescence at 594 nm. To generate a functional strand incision and increase turn-over this assay is coupled to APE1.

[7] = molecular target: T2, Endonuclease III-like protein 1 (Homo sapiens) (UniProt P78549); conditions: Compound Concentration 10.0 uM, Hit No;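 further: enzyme assay tracking NTHL1 cutting and release of a quenched double-stranded DNA oligo substrate, read as fluorescence at 594 nm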
T2 sequence (whole entry): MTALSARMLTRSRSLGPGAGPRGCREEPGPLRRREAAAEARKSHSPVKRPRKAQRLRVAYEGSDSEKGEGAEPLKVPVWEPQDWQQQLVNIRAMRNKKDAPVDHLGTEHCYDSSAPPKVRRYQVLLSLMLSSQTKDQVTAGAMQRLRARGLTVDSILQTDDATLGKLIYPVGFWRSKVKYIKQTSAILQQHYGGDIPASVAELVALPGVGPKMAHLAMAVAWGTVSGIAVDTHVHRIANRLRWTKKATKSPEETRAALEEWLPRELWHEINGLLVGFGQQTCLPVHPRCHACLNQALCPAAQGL
Description: Inhibition of NTHL1 by quantifying inhibition of NTHL1-mediated cleavage and dissociation of quenched duplex DNA oligonucleotides, measured as fluorescence at 594 nm.

[8] = molecular target: T3, Single-strand selective monofunctional uracil DNA glycosylase (Homo sapiens) (UniProt Q53HV7); conditions: Compound Concentration 10.0 uM, Hit No;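 further: enzymatic SMUG1 assay coupled with APE1, reading fluorescence at 594 nm released when a quenched double-stranded DNA oligonucleotide substrate is cleaved and separated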
T3 sequence (whole entry): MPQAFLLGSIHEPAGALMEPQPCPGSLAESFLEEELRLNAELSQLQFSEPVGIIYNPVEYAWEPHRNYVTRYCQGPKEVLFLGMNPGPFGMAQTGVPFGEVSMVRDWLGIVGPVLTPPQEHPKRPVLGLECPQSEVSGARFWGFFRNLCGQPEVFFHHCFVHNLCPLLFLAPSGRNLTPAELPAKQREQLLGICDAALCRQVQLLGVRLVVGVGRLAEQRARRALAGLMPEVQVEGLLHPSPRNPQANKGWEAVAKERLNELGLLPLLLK
Description: Inhibition of SMUG1 by quantifying inhibition of SMUG1-mediated cleavage and dissociation of quenched duplex DNA oligonucleotides, measured as fluorescence at 594 nm. To generate a functional strand incision and increase turn-over this assay is coupled to APE1.

[9] = molecular target: T4, Adenine DNA glycosylase (Homo sapiens) (UniProt Q9UIF7); conditions: Compound Concentration 10.0 uM, Hit No;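 further: human MUTYH activity read as 594 nm fluorescence from cleavage and release of a quenched DNA duplex, coupled with APE1 for strand incision, lower signal meaning inhibition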
T4 sequence (whole entry): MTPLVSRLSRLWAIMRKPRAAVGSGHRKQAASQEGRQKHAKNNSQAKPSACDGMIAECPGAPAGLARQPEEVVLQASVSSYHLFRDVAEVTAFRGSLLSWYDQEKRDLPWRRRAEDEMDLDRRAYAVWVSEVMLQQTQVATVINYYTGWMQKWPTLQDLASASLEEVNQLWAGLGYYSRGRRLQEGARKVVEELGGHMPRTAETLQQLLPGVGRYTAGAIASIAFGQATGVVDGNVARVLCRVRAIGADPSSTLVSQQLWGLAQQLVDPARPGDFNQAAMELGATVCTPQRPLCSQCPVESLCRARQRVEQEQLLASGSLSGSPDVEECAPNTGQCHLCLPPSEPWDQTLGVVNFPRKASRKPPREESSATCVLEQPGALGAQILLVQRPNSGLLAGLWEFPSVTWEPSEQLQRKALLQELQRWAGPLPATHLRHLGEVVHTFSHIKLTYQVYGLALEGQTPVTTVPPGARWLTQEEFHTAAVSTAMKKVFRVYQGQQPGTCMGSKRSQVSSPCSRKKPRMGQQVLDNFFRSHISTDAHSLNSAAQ
Description: Inhibition of MUTYH by quantifying inhibition of MUTYH-mediated cleavage and dissociation of quenched duplex DNA oligonucleotides, measured as fluorescence at 594 nm. To generate a functional strand incision and increase turn-over this assay is coupled to APE1.

[10] = molecular target: N-glycosylase/DNA lyase (Homo sapiens) (UniProt O15527); conditions: Compound Concentration 10.0 uM;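 further: OGG1 cleavage of a quenched duplex DNA oligonucleotide, coupled to APE1 for strand incision, read as fluorescence at 594 nm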
Chain of N-glycosylase/DNA lyase (Homo sapiens) (O15527 whole entry): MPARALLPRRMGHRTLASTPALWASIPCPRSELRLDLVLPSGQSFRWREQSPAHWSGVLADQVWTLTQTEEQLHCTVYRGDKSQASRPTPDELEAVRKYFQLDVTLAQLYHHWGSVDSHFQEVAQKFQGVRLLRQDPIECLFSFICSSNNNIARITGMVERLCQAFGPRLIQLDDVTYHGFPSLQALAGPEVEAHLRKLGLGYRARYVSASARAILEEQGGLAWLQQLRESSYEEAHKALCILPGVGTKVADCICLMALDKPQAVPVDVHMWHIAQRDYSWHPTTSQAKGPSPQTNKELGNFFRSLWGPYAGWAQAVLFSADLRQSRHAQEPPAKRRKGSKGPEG
Description: Inhibition of OGG1 by quantifying inhibition of OGG1-mediated cleavage and dissociation of quenched duplex DNA oligonucleotides, measured as fluorescence at 594 nm. To generate a functional strand incision and increase turn-over this assay is coupled to APE1.

Chain of Endonuclease 8-like 1 (Homo sapiens) (Q96FI4 whole entry): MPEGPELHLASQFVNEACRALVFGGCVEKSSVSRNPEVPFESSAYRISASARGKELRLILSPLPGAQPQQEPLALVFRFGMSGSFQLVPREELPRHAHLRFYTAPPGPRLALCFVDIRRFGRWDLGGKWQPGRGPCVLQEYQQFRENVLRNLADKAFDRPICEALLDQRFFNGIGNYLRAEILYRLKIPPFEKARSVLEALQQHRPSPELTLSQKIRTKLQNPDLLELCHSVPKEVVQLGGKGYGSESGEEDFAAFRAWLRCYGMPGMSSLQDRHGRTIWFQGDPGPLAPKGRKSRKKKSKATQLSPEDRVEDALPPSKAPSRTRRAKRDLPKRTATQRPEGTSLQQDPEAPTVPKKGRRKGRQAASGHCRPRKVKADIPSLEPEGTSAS
Chain of G/T mismatch-specific thymine DNA glycosylase (Homo sapiens) (Q13569 whole entry): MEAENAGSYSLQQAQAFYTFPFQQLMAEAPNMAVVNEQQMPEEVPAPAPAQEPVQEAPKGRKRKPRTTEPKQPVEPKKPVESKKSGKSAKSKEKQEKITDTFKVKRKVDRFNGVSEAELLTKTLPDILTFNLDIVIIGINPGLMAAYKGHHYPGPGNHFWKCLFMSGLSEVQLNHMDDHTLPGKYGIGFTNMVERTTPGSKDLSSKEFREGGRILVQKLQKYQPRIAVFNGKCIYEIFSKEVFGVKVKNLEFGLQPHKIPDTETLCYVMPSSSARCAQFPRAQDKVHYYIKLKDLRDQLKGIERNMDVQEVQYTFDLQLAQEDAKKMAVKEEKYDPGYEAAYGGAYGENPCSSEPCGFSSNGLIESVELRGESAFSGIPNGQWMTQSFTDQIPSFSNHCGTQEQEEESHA
Chain of Methyl-CpG-binding domain protein 4 (Homo sapiens) (O95243 whole entry, the tested form may be a part): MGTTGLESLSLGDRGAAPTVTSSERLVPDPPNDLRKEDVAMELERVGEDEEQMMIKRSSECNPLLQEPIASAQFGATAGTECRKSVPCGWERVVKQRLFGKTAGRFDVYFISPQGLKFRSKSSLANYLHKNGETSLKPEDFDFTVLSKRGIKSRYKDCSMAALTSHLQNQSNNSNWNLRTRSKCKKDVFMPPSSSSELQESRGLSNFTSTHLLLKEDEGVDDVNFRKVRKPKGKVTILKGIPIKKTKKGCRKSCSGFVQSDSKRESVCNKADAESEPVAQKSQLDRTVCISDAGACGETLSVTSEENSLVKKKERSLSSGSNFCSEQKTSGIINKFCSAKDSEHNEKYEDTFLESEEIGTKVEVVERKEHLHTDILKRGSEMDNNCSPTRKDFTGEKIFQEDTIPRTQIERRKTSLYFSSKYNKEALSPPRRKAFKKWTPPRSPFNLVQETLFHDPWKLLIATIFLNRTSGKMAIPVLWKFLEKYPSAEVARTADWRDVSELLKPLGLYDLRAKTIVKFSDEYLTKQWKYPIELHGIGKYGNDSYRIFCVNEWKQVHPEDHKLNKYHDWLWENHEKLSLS
Chain of DNA-3-methyladenine glycosylase (Homo sapiens) (P29372 whole entry): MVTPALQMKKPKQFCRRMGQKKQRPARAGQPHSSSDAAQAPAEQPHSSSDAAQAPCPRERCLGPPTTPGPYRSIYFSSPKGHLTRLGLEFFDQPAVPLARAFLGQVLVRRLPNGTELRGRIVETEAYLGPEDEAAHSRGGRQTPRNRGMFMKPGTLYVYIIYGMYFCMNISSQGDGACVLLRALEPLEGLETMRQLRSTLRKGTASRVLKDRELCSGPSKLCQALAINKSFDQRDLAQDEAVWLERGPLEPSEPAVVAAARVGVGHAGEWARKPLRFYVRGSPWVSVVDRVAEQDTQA
Chain of Uracil-DNA glycosylase (Homo sapiens) (P13051 whole entry, the tested form may be a part): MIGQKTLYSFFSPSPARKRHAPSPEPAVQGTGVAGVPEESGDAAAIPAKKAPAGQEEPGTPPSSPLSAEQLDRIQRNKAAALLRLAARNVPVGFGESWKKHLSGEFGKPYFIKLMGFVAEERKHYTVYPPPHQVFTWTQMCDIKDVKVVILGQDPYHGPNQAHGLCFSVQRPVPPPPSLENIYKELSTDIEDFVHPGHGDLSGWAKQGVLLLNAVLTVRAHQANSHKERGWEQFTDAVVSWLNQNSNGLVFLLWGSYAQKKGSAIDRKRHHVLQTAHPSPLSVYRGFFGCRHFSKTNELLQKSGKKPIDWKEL

Row | Structure (SMILES) | inhibition [1] [%] | inhibition ([2]; Hit No) [%] | inhibition [3] [%] | inhibition [4] [%] | inhibition [5] [%] | inhibition [6] [%] | inhibition [7] [%] | inhibition [8] [%] | inhibition [9] [%] | inhibition ([10]; Hit No) [%] | inhibition ([10]; Hit Yes) [%] | inhibition ([2]; Hit Yes) [%]
1 | C=CC(=O)Nc1cccc(C(=O)Nc2ccc(Nc3cc(-c4[nH]c(S)nc4C)ccn3)cc2)c1 | 3.19 | 23.5 | 8.04 | 19.6 | 5.55 | 102 | -6.89 | 16.9 | 61 | – | – | –
2 | Cc1nnc2ccc(-c3cccc(C(F)(F)F)c3)nn12 | -4.72 | 9.3 | -0.86 | -6.43 | 1.34 | 5.5 | 22 | -2.84 | -2.78 | – | – | –
3 | COC1(C[S@@+]([O-])c2ccccc2)CCN(CCc2c[nH]c3ccc(F)cc23)CC1 | -4 | 2.25 | – | -3.99 | 5.2 | 6.29 | 17.1 | -8.49 | -7.4 | – | – | –
4 | COc1cc(C(=O)N(CCC2CCCN2C)C/C(C)=C/c2ccccc2F)cc(OC)c1OC (stereo unspecified) | -3.28 | -5.37 | -1.62 | -9.88 | 4.16 | 0.239 | -5.21 | -3.01 | -4.18 | – | – | –
5 | COCc1nc2cnc3cc(-c4c(C)noc4C)c(OC[C@H]4CCNC4)cc3c2n1[C@H](C)c1ccccc1 | -1.93 | 57.4 | -1.25 | -8.22 | -6.95 | 54.7 | -9.18 | -7.21 | 2.41 | – | – | –
6 | CO[C@H]1CC=C2CCN3CCC4=C(CC(=O)OC4)[C@]23C1 | -6.82 | 5.26 | -5.96 | -7.01 | -3.1 | -1.81 | -0.258 | -2.5 | 1.14 | – | – | –
7 | Cc1c(F)cccc1[C@H]1COC(N)=N1 | -1.2 | 5.02 | -0.86 | 12.2 | 11.3 | 11.7 | 14.6 | -8.55 | 32.1 | – | – | –
8 | CC(C)(O)c1ccc2c(c1)ncn2-c1cccc(-c2ccccc2C#N)c1 | -7.68 | 26.4 | – | 3.49 | -1.62 | -5.39 | 12.1 | 1 | -2.7 | – | – | –
9 | COc1cc(OC2CCN(C(C)=O)CC2)ccc1C(=O)N1CCC(N2C(=O)OCc3ccccc32)CC1 | -2.76 | 5.95 | 5.25 | -3.3 | 2.08 | 20.8 | 24.5 | -0.579 | 48.1 | – | – | –
10 | CN[C@@H](C)C/C=C/c1cncc(OC(C)C)c1 | -5.51 | 1.46 | 6.78 | -3.71 | -3.1 | 4.54 | 4.7 | -1.2 | 16.8 | – | – | –
11 | CCNC(=O)[C@H]1O[C@@H](n2cnc3c(N)ncnc32)[C@H](O)[C@@H]1O | -2.94 | -0.442 | – | -3.56 | 3.86 | -4.15 | 17.9 | -5.33 | -3.4 | – | – | –
12 | N[C@@]1(C(=O)O)CC[C@H]2[C@H](C(=O)O)[C@H]21 | -8.38 | 2.62 | -1.37 | -1.43 | 5.05 | 13.1 | 27.8 | 2.53 | 4.77 | – | – | –
13 | CN1CCc2cc(Cl)c(O)cc2[C@@H](c2ccccc2)C1 | -3.84 | 14.5 | 3.22 | 10.9 | -6.51 | 3.73 | 4.7 | – | 14.8 | -2.12 | – | –
14 | CCNC(=O)[C@H]1O[C@@H](n2cnc3c(N)nc(NCCc4ccc(CCC(=O)O)cc4)nc32)[C@H](O)[C@@H]1O | -6.16 | 17.2 | -6.46 | -2.22 | 3.42 | 0.161 | 1.39 | – | 11.8 | -9.97 | – | –
15 | C[C@@H](C(N)=O)[C@H](N)c1nc2ccc(C(C)(C)C)cc2[nH]1 | -4.85 | 10.2 | – | 2.09 | 0.158 | 6.56 | 12.9 | -0.466 | 0.595 | – | – | –
16 | CCCN(CCc1cccs1)[C@H]1CCc2c(O)cccc2C1 | -4.64 | 27.8 | -1.88 | 14.7 | -8.88 | 8.18 | 18.7 | – | 14.9 | -7.03 | – | –
17 | COc1cccc(OC)c1-c1cc(C(=O)NC2(C(=O)O)C3CC4CC(C3)CC2C4)nn1-c1ccnc2cc(Cl)ccc12 (stereo unspecified) | -7.21 | 44.5 | -7.72 | 18.6 | -4.95 | 45.2 | 24.6 | – | 53.6 | 23.9 | – | –
18 | O=c1cc(-c2cc(F)c(Cl)nc2Cl)[nH]c2c(-c3ccccc3)c(C(F)(F)F)nn12 | 1.49 | 66.3 | 16 | 43.4 | -6.07 | 54.8 | 8 | – | 63.1 | – | 60.4 | –
19 | Brc1c(NC2=NCCN2)ccc2nccnc12 | – | – | 6.5 | -8.07 | -5.69 | 1.79 | -4.67 | -5.99 | -8.17 | – | – | 140
20 | c1ccc(Cn2c(N3CCNCC3)nc3ccccc32)cc1 | -7.26 | -1.45 | -2.13 | 2.45 | 3.42 | -3.94 | 25.3 | – | 0.413 | -7.05 | – | –
21 | NCCCCN(Cc1nc2ccccc2[nH]1)[C@H]1CCCc2cccnc21 | -4.22 | -9.01 | 6.78 | -6.17 | 10.7 | 0.598 | -0.258 | – | 5.47 | -6.41 | – | –
22 | CC(C)(C)c1ccc(NC(=O)N2CCN(c3ncccc3Cl)CC2)cc1 | -5.92 | 8.84 | – | 9.36 | -1.77 | 11 | 21.2 | -0.579 | -0.729 | – | – | –
23 | CC(C)C[C@H](NC(=O)[C@H](CC(N)=O)NC(=O)[C@@H]1CCCN1C(=O)[C@@H](N)C(C)C)C(=O)N1CCC[C@H]1C(=O)N[C@@H](CCC(N)=O)C(=O)N[C@@H](CCCNC(=N)N)C(=O)N[C@@H](Cc1ccccc1)C(N)=O | -4.09 | 7.14 | 4.75 | 2.54 | 5.49 | 4.58 | 17.1 | – | -3.17 | -4.66 | – | –
